The values that follow come from US20090054376A1, “BENZOFURAN DERIVATIVES WITH THERAPEUTIC ACTIVITIES” (Pharmos Corporation, priority 2005, published 2009).

What is called mortality is the percentage killed. Low readings indicate more survivors, high ones fewer survivors.

Each structure is given as a SMILES string.

Assay [1] concerns mechanical allodyna after chronic constriction of the sciatic nerve. Put plainly: Neuropathic pain, chronic constriction of the sciatic nerve (CCI). It counts as in vivo, Male Sprague Dawley rats. The following applies: four and a half hour after administration. As to the method: The analgesic activity of compounds of the invention was assessed in a chronic constriction induced (CCI) model of neuropathic pain. […] The development of mechanical allodyna was monitored using a Dynamic Plantar Sesthesiomether as described in Example 18. This apparatus is an automated version of the classical von Frey filaments' test.
Pre-surgery baseline values were ascertained as the mean of 2 pre-surgery values. Once the baseline values are established, the animals were surgically prepared by constricting the right sciatic nerve with 4-0 chromic cat gut loose ligatures. On day 11 post-operation, the animals that have developed mechanical allodyna were arbitrarily allocated to the various treatment groups based on the pre-surgery values.
The design was randomized, performed in a masked fashion as to whether drug or vehicle is being given. Male Sprague Dawley rats (average body weight 240 g, Harlan, Israel), were allowed to acclimatize to the behavioral testing equipment prior to testing. On the testing day, the animals, at least six per treatment group, were administered the compounds and controls at a volume dosage of 5 ml/kg. Fifteen minutes later, the mechanical stimulus was applied and the force, measured in grams, causing a withdrawal response for each of the ipsilateral and contralateral hind paws was evaluated.
Results are expressed as mean±SEM for each treatment group and the differences among those groups are analyzed by analysis of variance (ANOVA) followed by post-hoc Tukey's test. A value of p<0.05 is considered to be statistically significant. Thereafter the difference in the force to be applied to the injured paw as compared to the normal paw was calculated. Δforce, expressed in grams, was measured at baseline and 1 and 4.5 hours after treatment.

Assay [2] concerns visceral pain writhing responses. Put plainly: Tolerance: repeated administration in the model of Visceral Pain. It counts as in vivo, mice. The note with it: tested day 11 at 2 mg/kg i.v. The method, then: Male ICR mice (average body weight 25 g, Harlan, Israel) were pretreated by i.v. injection at volume dose of 5 ml/kg of vehicle, control and test compounds at various doses. Other routes of administration were tested for selected compounds including i.m. or s.c. injections at volume dose of 2.5 ml/kg and p.o. gavage at volume dose of 5 ml/kg. Compounds were dissolved in CREMOPHOR®:Ethanol and diluted 1:20 in saline prior to injection or gavage. Compounds administered i.v. were injected fifteen minutes before pain induction, whereas compounds administered i.m., s.c. or p.o. were supplied thirty minutes before pain induction, unless otherwise indicated. Each treatment group, except for controls comprising at least 30 animals, was composed of at least 6 animals. Fifteen or thirty minutes after drug administration, depending on the route of administration, the mice were injected i.p. with 10 ml/kg of 0.6% acetic acid and the number of visceral pain related behaviors (writhing movements globally defined as WR, i.e. stretching, contractions of the abdomen accompanied by an elongation of the body and extension of the hind limbs) was counted over a period of 5 minutes, starting 5 minutes after the acetic acid administration. These visceral pain related behaviors were globally defined as writhing responses (WR). The results are expressed as mean number of writhing responses ±SEM. Data were analyzed using analysis of variance (ANOVA) followed by post-hoc Fisher test.
Briefly compounds of the invention were administered at 10 mg/kg i.p. daily for 10 days and their analgesic activity was tested on day 11 as described in Example 17 (namely at 2 mg/kg i.v.). […] Each treatment group comprised 10 animals.

The subject of assay [3] is TNBS induced inflammatory bowel disease. Put plainly: TNBS induced inflammatory bowel disease. It counts as in vivo, Female Balb/C mice. The following applies: 20 mg/kg i.p. daily. The method, then: Female Balb/C mice (average body weight 20 g, Harlan, Israel) were lightly sedated and challenged rectally, by instillation with 70 μl of 2.5% TNBS (Sigma) dissolved in 50% ethanol, to induce intestinal inflammation and colitis. Animals were weighted before the beginning of the study and treatment was administered i.p. on a daily basis for six days at 20 mg/kg and volume dosage of 5 ml/kg. During the study period of up to 7 days, the following parameters were daily monitored and recorded: body weight, presence of blood in the stool and stool consistency. These findings are scored according to Table 6 [Murthy S.N. et al., Dig. Dis. Sci. 38:1722-34, 1993].
On the last day of the study, animals were euthanized. Abdomen was open and the colon was sectioned at the level of the caecum and the rectum. The colon was weighted and its length was measured. The whole column was excised, slited longitudinally, and examined under a magnifying lens. Any visible damage was recorded and scored for gross pathology according to Wong [Wong et al., J. Pharm. Exp. Ther. 274: 475-80, 1995]. Namely, a score of 0 indicates no damage, 1 indicates localized hyperemia and/or edema, 2 indicates at least two sites of hyperemia and/or edema, 3 indicates localized erosion, 4 indicates localized ulcer and 5 indicates either an erosion site or ulcer extending for more than 2 cm along the colon or at least two sites of erosion or ulcer. Finally, the entire colon was fixed in 4% formaldehyde for histopathological evaluation.
Each treatment group comprised at least seven animals. The following groups served as negative controls: naïve animals, sham animals that received 70 μl of 50% ethanol without TNBS, and TNBS challenged untreated and vehicle treated animals. A group of animals receiving 10 mg/kg sulfasalazine served as positive controls. Sulfasalazine is a standard anti-inflammatory drug used for the treatment of mild to moderate ulcerative colitis and Crohn's disease, and as adjunctive therapy in the treatment of severe ulcerative colitis. This drug is also used for the treatment of non-IBD related disorders, such as rheumatoid arthritis and ankylosing spondylitis. The recognized side effect of this medicament is its hepatotoxicity upon chronic treatment.

Take `CCCCCCC(C)(C)c1cc(O)c2c(c1)OC1C(O)CCCCC21` (stereo not drawn) [Compound C7S-2, 2-(1,1-dimethylheptyl)-5,6,7,8,9,9a-hexahydro-4bH-10-oxa-benzo[α]azulen-4,9-diol]: the “inhibition of the pain behavior (expressed in Δforce) as compared to baseline” value in assay [1] (0.005 mg/kg i.v.) is reported as 58%; in assay [1] (0.01 mg/kg i.v.) it was 67%; in assay [1] (0.025 mg/kg i.v.), 84%; in assay [1] (0.5 mg/kg i.v.), 92%. Besides, the “writhing responses on day 11” value in assay [2] (repeated administration daily for 10 days (10 mg/kg i.p.), vehicle 29.75±1.09) amounted to 2.45±1.49. Moreover, the “reduction in pain response after repeated administration” value in assay [2] (repeated administration daily for 10 days) is on record as 92%.

Regarding `CCCCC(C)(C)c1cc(O)c2c(c1)OC1CCCCC21` (stereo not drawn) [Compound C6S-3, 3-(1,1-dimethylpentyl)-5a,6,7,8,9,9a-hexahydro-dibenzofuran-1-ol], in assay [3], the “regained normal weight after” value is recorded as 4 days of treatment. Further, in assay [3] (one day after TNBS instillation), the “transient loss in body weight” value is “about 5%”. The same compound had a mortality in assay [3] (untreated 60%) of 7%.
